In patent US11274100B2, “EP300/CREBBP inhibitor” (Daiichi Sankyo Company, Limited, priority 2017, dated 2022):

Assays:
EP300 = EP300 (Homo sapiens, UniProt Q09472); experiment: Histone acetyltransferase inhibitory activity against EP300 (Test Example 1); format: biochemical; conditions: 50 ng/mL EP300, 2 μM Acetyl-CoA, 100 nM Histone H4(1-25)-GSGSK (Biotin), 28° C. for 1 hour
Procedure: (§1) [Test Example 1] Evaluation of Histone
(§2) Acetyltransferase Inhibitory Activity against EP300 and CREBBP
(§3) 10 μL each of reaction solutions each containing a different concentration of the compound of each of Examples 1 to 108b (50 mM Tris-HCl (pH8.0), 0.1 mM EDTA, 1 mM dithiothreitol, 0.01% Tween-20, 0.01% Bovine serum albumin, 330 nM trichostatin A, 2 μM Acetyl-CoA (Sigma-Aldrich, #A2056), 100 nM Histone H4(1-25)-GSGSK (Biotin) (Anaspec, #65242-1), 1% dimethyl sulfoxide, 10 to 0.0006 μM of each compound, 50 ng/mL EP300 or 125 ng/mL CREBBP) was added to respective wells of a 384-well plate, and cultured at 28° C. for 1 hour. Thereafter, 5 μL of 30 μM Lys-CoA (Daiichi Sankyo Co., Ltd.) dissolved in LANCE detection buffer (Perkin Elmer Co., Ltd., #CR97-100) was added to each well. Furthermore, 5 μL of LANCE detection buffer containing 2 nM Eu-anti pan-Ac (Perkin Elmer Co., Ltd., #TRF0412) and 50 nM Sta-Ulight (Perkin Elmer Co., Ltd., #TRF0102) was added to each well, and the resultant was cultured at room temperature overnight. EnVision (Perkin Elmer Co., Ltd., Model 2104-0020) was used to measure ULight signals. […] EP300 and CREBBP were produced and purified by Daiichi Sankyo RD Novare Co., Ltd.

CREBBP = CREBBP (Homo sapiens, UniProt Q92793); experiment: Histone acetyltransferase inhibitory activity against CREBBP (Test Example 1); format: biochemical; conditions: 125 ng/mL CREBBP, 2 μM Acetyl-CoA, 100 nM Histone H4(1-25)-GSGSK (Biotin), 28° C. for 1 hour
Procedure: as §1, §2, §3

H3K27Ac = experiment: Intracellular H3K27Ac inhibitory activity in LK2 cells (Test Example 2); format: cell-based; conditions: Homo sapiens, LK-2, cultured with compound for 3 hours, read-out: Test Example 2 H3K27Ac Inhibition (LK2) IC50
Procedure: [Test Example 2] Evaluation of Intracellular H3K27Ac Inhibitory Activity
LK2 cells derived from human squamous cell lung cancer were seeded in a 96 well plate at 40000 cells/100 μL/well, and were cultured overnight at 37° C. in 5% CO2. The LK2 cells were purchased from Human Science Research Resources Bank. […] The supernatant was discarded, 4% paraformaldehyde was added thereto at 100 μL/well, and the resultant was allowed to stand still at room temperature for 15 minutes. The 4% paraformaldehyde was discarded, and the resultant was washed with PBS-T. A quenching buffer (PBS-T containing 1% H2O2) was added thereto at of 100 μL/well, and the resultant was allowed to stand still at room temperature for 10 minutes. The resultant was washed with PBS-T, a blocking buffer (StartingBlocK T20 (TBS) Blocking Buffer (Thermo […], #37543)) was added thereto at 200 μL/well, and the resultant was allowed to stand still at room temperature for 1 hour. The supernatant was discarded, Acetyl-Histone H3 (Lys27) (D5E4) XP (registered trademark) Rabbit mAb (cell Signaling, #8173) diluted with a blocking buffer was added thereto at 50 μL/well, and the resultant was allowed to stand still at 4° C. overnight. The resultant was washed with PBS-T, Anti-Rabbit IgG-HRP (Cell Signaling, #7074S) diluted with a blocking buffer was added thereto at 50 μL/well, and the resultant was cultured at room temperature for 1 hour. The resultant was washed with PBS-T, SuperSignal (registered trademark) ELISA Pico Chemiluminescent Substrate (Thermo […], #37069) was added thereto at 50 μL/well, and a signal was measured using EnVision.

Sequence of EP300 (Q09472 whole entry): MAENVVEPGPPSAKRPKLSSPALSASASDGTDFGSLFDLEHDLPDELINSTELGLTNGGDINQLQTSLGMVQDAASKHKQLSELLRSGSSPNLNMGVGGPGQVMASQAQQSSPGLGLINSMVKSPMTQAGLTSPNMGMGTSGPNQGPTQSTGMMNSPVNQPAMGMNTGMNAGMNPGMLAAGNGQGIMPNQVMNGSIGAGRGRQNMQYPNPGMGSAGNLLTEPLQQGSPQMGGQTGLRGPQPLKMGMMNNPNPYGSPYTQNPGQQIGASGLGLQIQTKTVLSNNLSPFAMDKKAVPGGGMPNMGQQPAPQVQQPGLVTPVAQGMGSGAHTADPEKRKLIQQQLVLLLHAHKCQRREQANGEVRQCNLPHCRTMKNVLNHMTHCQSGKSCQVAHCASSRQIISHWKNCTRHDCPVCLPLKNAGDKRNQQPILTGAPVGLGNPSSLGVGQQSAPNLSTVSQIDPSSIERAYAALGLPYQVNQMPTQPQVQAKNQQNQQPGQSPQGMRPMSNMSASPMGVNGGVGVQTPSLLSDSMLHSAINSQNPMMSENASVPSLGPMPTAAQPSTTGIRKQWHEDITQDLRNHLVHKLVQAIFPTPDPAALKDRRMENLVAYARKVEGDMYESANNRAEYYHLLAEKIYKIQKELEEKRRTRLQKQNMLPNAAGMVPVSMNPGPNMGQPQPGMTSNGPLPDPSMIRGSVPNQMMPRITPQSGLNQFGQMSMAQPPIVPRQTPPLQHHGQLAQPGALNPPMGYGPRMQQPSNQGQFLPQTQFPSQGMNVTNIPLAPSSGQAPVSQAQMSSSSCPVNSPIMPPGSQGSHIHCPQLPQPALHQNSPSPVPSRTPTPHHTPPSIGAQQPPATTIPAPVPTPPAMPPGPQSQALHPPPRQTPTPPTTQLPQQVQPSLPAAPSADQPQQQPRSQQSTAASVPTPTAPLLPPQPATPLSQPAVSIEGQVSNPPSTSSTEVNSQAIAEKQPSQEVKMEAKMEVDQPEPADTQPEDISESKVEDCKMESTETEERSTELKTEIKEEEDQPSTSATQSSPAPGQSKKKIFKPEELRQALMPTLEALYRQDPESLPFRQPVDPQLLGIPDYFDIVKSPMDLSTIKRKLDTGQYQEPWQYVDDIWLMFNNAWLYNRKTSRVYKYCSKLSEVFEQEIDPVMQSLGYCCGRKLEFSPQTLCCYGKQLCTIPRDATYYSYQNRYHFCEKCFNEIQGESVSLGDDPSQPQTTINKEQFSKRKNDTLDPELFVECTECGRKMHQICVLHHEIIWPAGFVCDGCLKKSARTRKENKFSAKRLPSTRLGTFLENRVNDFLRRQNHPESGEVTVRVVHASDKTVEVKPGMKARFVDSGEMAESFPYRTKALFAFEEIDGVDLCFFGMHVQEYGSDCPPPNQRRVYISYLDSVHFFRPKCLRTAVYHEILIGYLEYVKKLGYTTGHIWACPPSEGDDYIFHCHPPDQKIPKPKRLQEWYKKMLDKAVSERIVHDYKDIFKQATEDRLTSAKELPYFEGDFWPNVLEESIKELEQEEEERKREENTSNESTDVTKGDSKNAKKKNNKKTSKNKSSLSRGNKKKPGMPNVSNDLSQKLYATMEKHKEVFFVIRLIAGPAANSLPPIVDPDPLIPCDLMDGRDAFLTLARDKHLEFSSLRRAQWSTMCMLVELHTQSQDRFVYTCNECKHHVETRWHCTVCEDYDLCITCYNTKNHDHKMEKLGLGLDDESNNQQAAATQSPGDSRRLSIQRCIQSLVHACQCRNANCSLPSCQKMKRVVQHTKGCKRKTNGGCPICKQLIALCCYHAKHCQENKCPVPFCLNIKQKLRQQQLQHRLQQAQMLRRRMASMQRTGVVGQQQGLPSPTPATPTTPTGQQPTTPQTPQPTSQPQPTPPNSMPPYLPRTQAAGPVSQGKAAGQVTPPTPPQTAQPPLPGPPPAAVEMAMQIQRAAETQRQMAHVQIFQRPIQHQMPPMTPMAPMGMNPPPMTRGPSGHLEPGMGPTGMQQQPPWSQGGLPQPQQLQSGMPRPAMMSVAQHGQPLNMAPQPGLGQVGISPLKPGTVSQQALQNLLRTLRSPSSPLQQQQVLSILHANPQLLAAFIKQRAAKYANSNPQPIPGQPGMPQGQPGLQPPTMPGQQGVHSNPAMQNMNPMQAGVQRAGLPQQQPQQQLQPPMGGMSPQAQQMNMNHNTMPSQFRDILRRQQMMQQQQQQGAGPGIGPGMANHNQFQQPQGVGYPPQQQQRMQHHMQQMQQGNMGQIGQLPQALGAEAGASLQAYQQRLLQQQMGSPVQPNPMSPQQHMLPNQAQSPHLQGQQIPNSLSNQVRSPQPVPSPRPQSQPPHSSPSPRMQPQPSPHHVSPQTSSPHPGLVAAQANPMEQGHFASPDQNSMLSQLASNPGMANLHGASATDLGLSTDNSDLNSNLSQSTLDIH
Sequence of CREBBP (Q92793 whole entry): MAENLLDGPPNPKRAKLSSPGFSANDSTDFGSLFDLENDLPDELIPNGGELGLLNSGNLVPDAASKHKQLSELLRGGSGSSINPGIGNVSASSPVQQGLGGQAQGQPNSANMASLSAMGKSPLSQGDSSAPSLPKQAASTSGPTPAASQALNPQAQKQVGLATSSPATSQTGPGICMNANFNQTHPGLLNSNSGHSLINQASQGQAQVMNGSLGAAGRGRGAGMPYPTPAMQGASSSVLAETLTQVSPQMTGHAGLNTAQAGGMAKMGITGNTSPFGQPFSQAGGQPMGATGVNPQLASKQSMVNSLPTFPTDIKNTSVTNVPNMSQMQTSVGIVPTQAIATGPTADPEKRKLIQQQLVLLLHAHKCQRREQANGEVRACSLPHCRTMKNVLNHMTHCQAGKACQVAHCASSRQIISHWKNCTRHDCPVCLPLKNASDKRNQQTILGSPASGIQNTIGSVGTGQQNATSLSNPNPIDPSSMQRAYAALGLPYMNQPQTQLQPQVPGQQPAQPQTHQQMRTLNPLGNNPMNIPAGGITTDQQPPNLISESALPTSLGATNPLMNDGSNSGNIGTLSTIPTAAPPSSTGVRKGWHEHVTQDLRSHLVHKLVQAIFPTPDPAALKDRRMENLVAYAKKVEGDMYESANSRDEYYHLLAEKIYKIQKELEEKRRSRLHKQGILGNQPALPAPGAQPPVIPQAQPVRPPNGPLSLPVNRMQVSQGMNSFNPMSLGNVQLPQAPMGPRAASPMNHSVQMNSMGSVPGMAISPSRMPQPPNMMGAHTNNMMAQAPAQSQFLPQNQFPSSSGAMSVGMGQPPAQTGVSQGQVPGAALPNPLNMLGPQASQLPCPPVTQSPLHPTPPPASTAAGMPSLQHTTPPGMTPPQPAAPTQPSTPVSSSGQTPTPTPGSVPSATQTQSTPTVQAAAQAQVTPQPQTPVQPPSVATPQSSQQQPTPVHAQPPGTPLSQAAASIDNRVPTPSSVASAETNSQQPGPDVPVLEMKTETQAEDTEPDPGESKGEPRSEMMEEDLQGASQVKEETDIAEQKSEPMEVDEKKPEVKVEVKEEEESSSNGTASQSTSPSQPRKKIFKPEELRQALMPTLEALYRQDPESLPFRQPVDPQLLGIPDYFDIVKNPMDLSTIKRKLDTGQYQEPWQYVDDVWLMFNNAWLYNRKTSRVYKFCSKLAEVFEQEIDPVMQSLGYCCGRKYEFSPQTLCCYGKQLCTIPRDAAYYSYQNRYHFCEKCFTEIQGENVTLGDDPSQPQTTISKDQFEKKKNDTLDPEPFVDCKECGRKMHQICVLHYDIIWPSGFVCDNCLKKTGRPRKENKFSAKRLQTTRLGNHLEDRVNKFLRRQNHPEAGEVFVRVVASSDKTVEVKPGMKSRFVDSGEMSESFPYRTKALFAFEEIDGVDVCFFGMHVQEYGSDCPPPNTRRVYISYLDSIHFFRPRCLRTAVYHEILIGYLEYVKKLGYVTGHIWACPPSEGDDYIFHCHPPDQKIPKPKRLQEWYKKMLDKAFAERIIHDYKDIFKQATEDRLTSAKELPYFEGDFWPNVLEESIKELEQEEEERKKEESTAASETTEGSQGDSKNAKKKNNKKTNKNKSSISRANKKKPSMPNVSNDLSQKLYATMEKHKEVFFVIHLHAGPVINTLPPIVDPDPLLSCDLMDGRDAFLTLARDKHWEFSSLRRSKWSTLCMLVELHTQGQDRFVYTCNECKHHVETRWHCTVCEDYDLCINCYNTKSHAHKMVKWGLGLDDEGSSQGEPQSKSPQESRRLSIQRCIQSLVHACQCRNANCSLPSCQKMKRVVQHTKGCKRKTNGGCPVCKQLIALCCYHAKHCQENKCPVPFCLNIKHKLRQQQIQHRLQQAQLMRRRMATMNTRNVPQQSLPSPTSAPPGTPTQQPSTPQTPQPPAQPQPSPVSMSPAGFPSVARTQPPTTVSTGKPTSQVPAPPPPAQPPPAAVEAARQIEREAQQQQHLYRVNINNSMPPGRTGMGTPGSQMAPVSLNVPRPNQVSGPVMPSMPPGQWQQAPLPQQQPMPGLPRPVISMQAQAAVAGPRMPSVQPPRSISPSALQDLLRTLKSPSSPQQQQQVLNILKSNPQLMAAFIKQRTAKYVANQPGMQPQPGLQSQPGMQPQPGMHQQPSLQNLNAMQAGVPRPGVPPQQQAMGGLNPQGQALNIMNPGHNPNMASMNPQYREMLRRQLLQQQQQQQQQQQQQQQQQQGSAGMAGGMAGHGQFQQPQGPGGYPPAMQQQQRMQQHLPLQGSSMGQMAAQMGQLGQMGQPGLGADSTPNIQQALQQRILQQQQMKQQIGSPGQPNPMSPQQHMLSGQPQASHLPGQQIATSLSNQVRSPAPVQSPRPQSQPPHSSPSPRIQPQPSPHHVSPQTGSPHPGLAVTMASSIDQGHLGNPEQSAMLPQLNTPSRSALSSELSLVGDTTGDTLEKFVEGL

Row | Compound | IC50 (EP300) [nM] | IC50 (CREBBP) [nM] | IC50 (H3K27Ac) [nM]
1 | COc1ccc(C2(C(=O)N3CCC[C@@H]3C(=O)Nc3ccncc3)CCCC2)cc1 [Example 11, 1-{[1-(4-Methoxyphenyl)cyclopentyl]carbonyl}-N-pyridin-4-yl-D-prolinamide] |  |  | 8060
2 | COc1ccc(C2(C(=O)N3[C@H](C)CC[C@@H]3C(=O)Nc3cccc4[nH]ncc34)CCCC2)cc1 [Example 25, (5R)—N-1H-Indazol-4-yl-1-{[1-(4-methoxyphenyl)cyclopentyl]carbonyl}-5-methyl-D-prolinamide] |  |  | 5320
3 | COc1ccc(C2(C(=O)N3CCC[C@@H]3C(=O)Nc3cccc4cccnc34)CCCC2)cc1 [Example 14, 1-{[1-(4-Methoxyphenyl)cyclopentyl]carbonyl}-N-quinolin-8-yl-D-prolinamide] |  |  | 6670
4 | COc1ccc(C2(C(=O)N3C[C@@H](F)C[C@@H]3C(=O)Nc3cccc4[nH]ncc34)CCCC2)cc1 [Example 7, (4S)-4-Fluoro-N-1H-indazol-4-yl-1-{[1-(4-methoxyphenyl)cyclopentyl]carbonyl}-D-prolinamide] |  |  | 8750
5 | COc1ccc(C2(C(=O)N3CCC[C@@H]3C(=O)Nc3ccccc3)CCCC2)cc1 [Example 8, 1-{[1-(4-Methoxyphenyl)cyclopentyl]carbonyl}-N-phenyl-D-prolinamide] |  |  | 6530
6 | COc1ccc(C2(C(=O)N3C[C@H](F)C[C@@H]3C(=O)Nc3cccc4[nH]ncc34)CCCOC2)cc1 (stereo partly drawn) [Example 42, (4R)-4-Fluoro-N-1H-indazol-4-yl-1-{[3-(4-methoxyphenyl)tetrahydro-2H-pyran-3-yl]carbonyl}-D-prolinamide] |  |  | 4010
7 | O=C(O)c1ccc(C2(C(=O)N3CCC[C@@H]3C(=O)Nc3cccc4[nH]ncc34)CCCC2)cc1 [Example 4, 4-(1-{[(2R)-2-(1H-Indazol-4-ylcarbamoyl)pyrrolidin-1-yl]carbonyl}cyclopentyl)benzoic acid] |  |  | 11700
8 | COc1ccc(C2(C(=O)N3CCC[C@@H]3C(=O)Nc3ccccc3OC)CCCC2)cc1 [Example 10, N-(2-Methoxyphenyl)-1-{[1-(4-methoxyphenyl)cyclopentyl]carbonyl}-D-prolinamide] |  |  | 6110
9 | COc1ccc(C2(C(=O)N3CCCC3C(=O)Nc3cccc4c3cnn4C)CCCCC2)cc1 (stereo not drawn) [Example 3, 1-{[1-(4-Methoxyphenyl)cyclohexyl]carbonyl}-N-(1-methyl-1H-indazol-4-yl)prolinamide] |  |  | 10600
10 | COc1ccc(C2(C(=O)N3C[C@H](OC)C[C@@H]3C(=O)Nc3cccc4[nH]ncc34)CCCC2)cc1 [Example 6, (4R)—N-1H-Indazol-4-yl-4-methoxy-1-{[1-(4-methoxyphenyl)cyclopentyl]carbonyl}-D-prolinamide] |  |  | 9640
11 | COc1ccc(C2(C(=O)N3CCC[C@@H]3C(=O)Nc3cccc4ccccc34)CCCC2)cc1 [Example 13, 1-{[1-(4-Methoxyphenyl)cyclopentyl]carbonyl}-N-naphthalen-1-yl-D-prolinamide] |  |  | 3990
12 | COc1ccc(C2(C(=O)N3CCC[C@@H]3C(=O)Nc3cccc(C)c3)CCCC2)cc1 [Example 9, 1-{[1-(4-Methoxyphenyl)cyclopentyl]carbonyl}-N-(3-methylphenyl)-D-prolinamide] |  |  | 8450
13 | COc1ccc(C2(C(=O)N3C[C@H](F)C[C@@H]3C(=O)Nc3cccc4[nH]ncc34)CCCCO2)cc1 (stereo partly drawn) [Example 43, (4R)-4-Fluoro-N-1H-indazol-4-yl-1-{[2-(4-methoxyphenyl)tetrahydro-2H-pyran-2-yl]carbonyl}-D-prolinamide] |  |  | 6450
14 | COc1ccc(C2(C(=O)N3C[S+]([O-])C[C@@H]3C(=O)Nc3cccc4[nH]ncc34)CCCC2)cc1 (stereo partly drawn) [Example 28b, (4S)—N-(1H-Indazol-4-yl)-3-{[1-(4-methoxyphenyl)cyclopentyl]carbonyl}-1,3-thiazolidin-4-carboxamide 1-oxide] |  |  | 6880
15 | COc1ccc(C2(C(=O)N3CCC[C@@H]3C(=O)Nc3ncccn3)CCCC2)cc1 [Example 20, 1-{[1-(4-Methoxyphenyl)cyclopentyl]carbonyl}-N-pyrimidin-2-yl-D-prolinamide] |  |  | 7720

Stronger by IC50 (H3K27Ac), values ahead:

Row | IC50 (EP300) [nM] | IC50 (CREBBP) [nM] | IC50 (H3K27Ac) [nM] | Compound
16 | 40 | 39 | 307 | COc1ccc(C2(C(=O)N3CSC[C@@H]3C(=O)Nc3ccccc3C#N)CCCCC2)cc1 [Example 34, (4S)—N-(2-Cyanophenyl)-3-{[1-(4-methoxyphenyl)cyclohexyl]carbonyl}-1,3-thiazolidine-4-carboxamide]
17 | 130 | 36 | 458 | COc1ccc(C2(C(=O)N3CCC[C@@H]3C(=O)Nc3ccc(O)c(Cl)c3)CCCC2)cc1 [Example 21, N-(3-Chloro-4-hydroxy-phenyl)-1-{[1-(4-methoxyphenyl)cyclopentyl]carbonyl}-D-prolinamide]
18 |  |  | 1650 | C#C[C@@]1(O)C[C@H](C(=O)Nc2ccccc2Cl)N(C(=O)C2(c3ccc(OC)cc3)CCCC2)C1 [Example 32, (4S)—N-(2-Chlorophenyl)-4-ethynyl-4-hydroxy-1-{[1-(4-methoxyphenyl)cyclopentyl]carbonyl}-D-prolinamide]
19 | 213 | 237 | 709 | COc1ccc(C2(C(=O)N3CCC[C@@H]3C(=O)Nc3ccc4[nH]ccc4c3)CCCC2)cc1 [Example 17, N-1H-Indol-5-yl-1-{[1-(4-methoxyphenyl)cyclopentyl]carbonyl}-D-prolinamide]
20 | 171 | 169 | 1050 | COc1ccc(C2(C(=O)N3CCC[C@@H]3C(=O)Nc3ccc4[nH]c(=O)[nH]c4c3)CCCC2)cc1 [Example 19, l-{[1-(4-Methoxyphenyl)cyclopentyl]carbonyl}-N-(2-oxo-2,3-dihydro-1H-benzimidazol-5-yl)-D-prolinamide]
21 | 397 | 678 | 2410 | COc1ccc(C2(C(=O)N3C[C@H](F)C[C@@H]3C(=O)Nc3ccc4c(n3)NC(=O)CO4)CCCCC2)cc1 [Example 67, (4R)-4-Fluoro-1-{[1-(4-methoxyphenyl)cyclohexyl]carbonyl}-N-(3-oxo-3,4-dihydro-2H-pyrido[3,2-b][1,4]oxazin-6-yl)-D-prolinamide]
22 |  |  | 2500 | COc1ccc(C2(C(=O)N3CCC[C@@H]3C(=O)Nc3cccc4[nH]cnc34)CCCC2)cc1 [Example 59]
23 | 22 | 29 | 27 | COc1ccc(C2(C(=O)N3CS(=O)(=O)C[C@@H]3C(=O)Nc3ccc4[nH]ncc4n3)CCCCC2)cc1 [Example 40, (4S)-3-{[1-(4-Methoxyphenyl)cyclohexyl]carbonyl}-N-(1H-pyrazolo[4,3-b]pyridin-5-yl)-1,3-thiazolidin-4-carboxamide 1,1-dioxide]
24 |  |  | 2530 | COc1ccc(C2(C(=O)N3CCCCC[C@@H]3C(=O)Nc3ccccc3C#N)CCCC2)cc1 [Example 27, (2R)—N-(2-Cyanophenyl)-1-{[1-(4-methoxyphenyl)cyclopentyl]carbonyl}azepan-2-carboxamide]
25 |  |  | 2020 | COc1ccc(C2(C(=O)N3CCC[C@@H]3C(=O)Nc3cccc4[nH]ncc34)CCC(F)(F)CC2)cc1 [Example 55]
26 |  |  | 3340 | COc1ccc(C2(C(=O)N3CCC[C@@H]3C(=O)Nc3ccc4c(c3)CCC(=O)N4)CCCC2)cc1 [Example 18, l-{[1-(4-Methoxyphenyl)cyclopentyl]carbonyl}-N-(2-oxo-1,2,3,4-tetrahydroquinolin-6-yl)-D-prolinamide]
27 |  |  | 2580 | COc1ccc(C2(C(=O)N3CCC[C@@H]3C(=O)Nc3ccc(OCc4ccccc4)cc3)CCCC2)cc1 [Example 12, N-[4-(Benzyloxy)phenyl]-1-{[1-(4-methoxyphenyl)cyclopentyl]carbonyl}-D-prolinamide]
